The values below come from PubChem BioAssay (NCI).

Among the test systems are HOP-18 NSCLC; M19-MEL melanoma; RXF-631 renal; BT-549 breast; XF 498 CNS; MDA-N.
Common to all, as to experiment: NCI-60 cell line screen, 48 h

Where “and” joins values, the source holds several entries; their conditions need not be identical. Identical values can stand only once.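 Briefly, cells in 96-well plates were exposed to five compound concentrations for 48 h, and endpoints were estimated by linear interpolation. Here, GI50 denotes the concentration required for 50% inhibition of growth. TGI marks complete inhibition of growth.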 Bounds are passed on as bounds.

Consider `CCCCCCCCOCC(O)COC(=O)CCCCCCC` (stereo not drawn), for which the TGI in the assay with HOP-18 NSCLC, in the assay with M19-MEL melanoma and with RXF-631 renal was greater than 100 µM in each case.

Turning to `N#Cc1c2c(c(N=P(c3ccccc3)(c3ccccc3)c3ccccc3)n3c1nc1ccccc13)CCCC2`, the TGI in the assay with HOP-18 NSCLC was greater than 100 µM; in the assay with M19-MEL melanoma, 67.8 µM; in the assay on RXF-631 renal, greater than 100 µM.

With `O=[N+]([O-])c1ccccc1N/N=C\c1c[nH]c2ccccc12`, in the assay on BT-549 breast, the GI50 is greater than 21.5 µM and the TGI was greater than 100 µM.

Regarding `NC(N)=N/N=C/c1c(-c2cc(Cl)sc2Cl)nc2sccn12`, in the assay on BT-549 breast, the GI50 was 1.14 µM and the TGI is 2.55 µM.

Take `COc1ccc(C2CC(c3cc(C)ccc3O)=NC(N)=N2)cc1` (stereo not drawn): the TGI with XF 498 CNS, in the assay on HOP-18 NSCLC and in the assay with M19-MEL melanoma was greater than 100 µM each time.

For `CC1=CC(=C(c2ccc(N)cc2)c2ccc(N)cc2)C=CC1=N`, the TGI was greater than 40.9 µM in the assay with MDA-N; 10.3 µM in the assay with XF 498 CNS; 14.5 µM in the assay with M19-MEL melanoma; 5.47 µM and 7.09 µM and 9.14 µM with BT-549 breast. The GI50 with BT-549 breast is 0.679 µM and 1.63 µM.

In the case of `CC(C)(C)OC(=O)NCCc1cccc2c1oc1c(CCC(=O)O)cccc12`, the TGI with XF 498 CNS, with HOP-18 NSCLC and with M19-MEL melanoma was greater than 100 µM each time.

For `Cn1cc(C2=C(c3cn(C)c4c([N+](=O)[O-])cccc34)C(=O)NC2=O)c2ccccc21`, in the assay with BT-549 breast, the GI50 was greater than 25 µM and the TGI was greater than 25 µM.

In the case of `CC(=O)OC1CCCn2c1nc1c2C(=O)C(C)=C(N2CC2)C1=O` (stereo not drawn), the values for the TGI in the assay with XF 498 CNS, with HOP-18 NSCLC and with M19-MEL melanoma were 0.685 µM, 1.11 µM and 1.63 µM, respectively.

For the compound `CCN(CC)CCOc1ccccc1/C=C/c1noc2ccccc12`, the TGI was 24.1 µM in the assay with MDA-N and 29.9 µM in the assay with BT-549 breast.

For `Nc1nc(OCc2cc(Br)cs2)c2[nH]cnc2n1`, in the assay on BT-549 breast, the GI50 was 15.7 µM and the TGI turned out to be 63.9 µM.

As to `CC(/C(=N\Nc1ccccc1)c1ccc(O)cc1)C1C(=O)Oc2ccccc21` (stereo not drawn), in the assay with M19-MEL melanoma, the TGI is greater than 100 µM.

Take `O=[N+]([O-])c1ccc(Sc2ncnc3nc[nH]c23)c2nonc12`: in the assay with BT-549 breast, the GI50 was 10.3 µM and the TGI is 27.4 µM.

With `O=C(/C(=C\c1ccc([N+](=O)[O-])cc1)S(=O)Cc1ccc(F)cc1)c1ccc(F)cc1` (stereo not drawn), in the assay on BT-549 breast, the GI50 was 1.96 µM and the TGI came out at 3.88 µM.

Regarding `O=C(c1ccccc1)c1ccc(Oc2ccc([N+](=O)[O-])cc2[N+](=O)[O-])cc1`, in the assay on BT-549 breast, the GI50 was 3.75 µM and the TGI stood at 40.3 µM.

In the assay with M19-MEL melanoma, `COC(=O)C(C(=O)C(=O)Nc1nc(=S)[nH][nH]1)c1csc(-n2nc(-c3ccccc3)cc2-c2ccccc2)n1` (stereo not drawn) had a TGI greater than 100 µM.

With `O=CNc1ncn[nH]1`, the TGI with MDA-N and with BT-549 breast was greater than 100 µM in each case.

For the compound `CC1(C)CCC2=C(O1)c1ccccc1C(=O)C2=O`, the TGI in the assay with MDA-N amounted to 0.363 µM. For the same compound, in the assay on BT-549 breast, the GI50 was 1.51 µM; the TGI was 2.92 µM and 1.74 µM.

For `C/C(=C\CCc1ccoc1)CC/C=C(\C)CCCN1CCOCC1`, in the assay with BT-549 breast, the GI50 was 1.88 µM and the TGI was found to be 8.74 µM.

`CS(=O)(=O)Nc1ccc(-c2cc(-c3ccccc3)cc(C(N)=O)c2N)cc1`: in the assay with BT-549 breast, the GI50 is greater than 25 µM and the TGI is greater than 25 µM.

Turning to `O=C1c2ccccc2S(=O)(=O)N1CSC(=S)N1CCCCC1`, in the assay with BT-549 breast, the GI50 was greater than 100 µM and the TGI was greater than 100 µM.

Regarding `NS(=O)(=O)c1ccc(NC2=CC(=O)C(=O)c3ccccc32)cc1`, the TGI in the assay with HOP-18 NSCLC and in the assay with M19-MEL melanoma was greater than 100 µM in each case.

For the compound `NC1CCC(Nc2nc(NCc3ccc(-c4cccs4)nc3)c3ncn(C4CCCC4)c3n2)CC1` (stereo not drawn), in the assay on BT-549 breast, the GI50 is 0.131 µM and the TGI worked out at 0.626 µM.

For `COC1CCN(C(=O)c2cc(Cc3n[nH]c(=O)c4ccccc34)ccc2F)CC1`, in the assay with BT-549 breast, the GI50 is 28.8 µM and the TGI is greater than 100 µM.

With `CC(=O)Nc1cc(N(CCOS(C)(=O)=O)CCOS(C)(=O)=O)ccc1N=O`, the TGI in the assay with XF 498 CNS and in the assay on M19-MEL melanoma was greater than 100 µM each time.

Regarding `O=C1C(=O)c2c(nc3ccc(Br)cn23)-c2ccccc21`, in the assay with BT-549 breast, the GI50 was 1.37 µM and the TGI came to 2.67 µM.

Take `CO[C@@H]1C=C[C@@]23c4cc5c(cc4C(=O)O[C@H]2CN(C)[C@H]3C1)OCO5`: the TGI with XF 498 CNS, with HOP-18 NSCLC and in the assay on M19-MEL melanoma was greater than 100 µM each time.

Take `COC(=O)C(CC(C)C)NC(=O)NC12CC3CC(CC(F)(C3)C1)C2` (stereo not drawn): the TGI in the assay on M19-MEL melanoma and in the assay on RXF-631 renal was greater than 100 µM in each case.

Regarding `CCCCCCCCCCCCCC1=NCCN1CCO`, in the assay on BT-549 breast, the GI50 is 13.4 µM and the TGI is 31.8 µM.

For `CN(C)CCNC(=O)C(C)(C)Oc1ccc(C(=O)c2ccc(Cl)cc2)cc1Cl`, the GI50 in the assay with MDA-N is 6.48 µM. The TGI with MDA-N came to 19.8 µM; with BT-549 breast, 23.9 µM.

Turning to `CC[P+](C)(C)c1ccccc1`, the TGI was greater than 100 µM with XF 498 CNS, 49.8 µM with HOP-18 NSCLC and greater than 100 µM in the assay on M19-MEL melanoma.

Regarding `O=C(O)c1cc(/C=C/c2cc(O)ccc2O)ccc1O`, the TGI in the assay with MDA-N and in the assay with BT-549 breast was greater than 10 µM in each case.

As for `Clc1cccc(Cl)c1C1CSc2ccccc2N=C1c1ccccc1` (stereo not drawn), in the assay with BT-549 breast, the GI50 is 5.19 µM and the TGI was determined as 17.1 µM.

For `c1cc2[nH]ncc2cc1-c1nc2ccc3[nH]ncc3c2c2c1CCCC2`, in the assay with BT-549 breast, the GI50 is 1 µM and the TGI worked out at 3.78 µM.

On to `C[C@H](Nc1ncnc2nc[nH]c12)c1cc2ccc(F)cc2nc1-c1ccccn1`, for which, in the assay with BT-549 breast, the GI50 was 36.2 µM and the TGI was greater than 100 µM.

As for `CC(=O)c1ccc(OCC(O)CO)cc1` (stereo not drawn), the TGI in the assay on HOP-18 NSCLC, in the assay on M19-MEL melanoma and in the assay on RXF-631 renal was greater than 100 µM throughout.
